Source: patent publication US20250109139A1, “TRICYCLIC COMPOUND, AND PREPARATION METHOD THEREFOR AND USE THEREOF” (SHANGHAITECH UNIVERSITY, priority 2022, published 2025)
Where two headings read alike, the source gives them in different places.

Tests used:
[1] = target: T1, dopamine D2 receptors (Homo sapiens (Human), UniProt P14416); test: Dopamine D2 receptor Gαi1 BRET (G protein trimer dissociation); assay type: cell-based
Method in brief: (§1)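 G-protein assay: cells co-transfected with D2 receptor, Gαi1-Rluc, Gβ3 and Gγ9-GFP (1 μg each); β-arrestin2 assay: D2-Rluc, GRK2 and GFP2-β-arrestin2 co-transfected. Cells were reseeded after one day and tested on day three. Drug dilution series were added in duplicate with coelenterazine 400a (5 μM final), and the BRET signal was read.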

[2] = target: T1, dopamine D2 receptors; test: Dopamine D2 receptor β-arrestin2 BRET (recruitment); assay type: cell-based
Method in brief: as §1

[3] = Pharmacokinetics in SD rats, single dose intragastric and intravenous; assay type: in vivo; conditions: male, rat, plasma; for AUC(0-t): read-out: Area under the drug-time curve AUC0-t; for half-life: read-out: Elimination half-life t1/2 (converted); for MRT: read-out: Mean residence time MRT
Description: Testing of pharmacokinetic properties of compounds administered in a single dose to SD rats by intragastric administration and intravenous injection
After the compound was administered in a single dose to male SD rats, blood samples were collected at different time points. The concentration of the compound in the plasma of the rats was determined by LC-MS/MS and the relevant pharmacokinetic parameters were calculated to investigate the pharmacokinetics of the compound in rats.
Male SD rats were provided by Suzhou JOINN Laboratories Co., Ltd. SD rats were fasted with free access to water for 12 to 14 hours one day before administration, and were fed 4 hours after administration.
For each compound, the […] were divided into two groups: intravenous injection and intragastric administration, with 3 rats in each group. For both intravenous injection (administered at a dose of 3 mg/kg and a concentration of 0.6 mL/kg) and intragastric administration (administered at a dose of 10 mg/kg and a concentration of 1 mL/kg), 5% DMSO+5% Solutol+90% saline was used as the vehicle.
Sample collection: 0.10 mL of blood was collected from the orbit of each animal in IV/PO groups each time at 5 minutes, 15 minutes, 30 minutes, 1 hour, 2 hours, 4 hours, 6 hours, 8 hours, and 24 hours after administration of the test compound, and anticoagulated with EDTA-K2. Blood samples were placed on ice after collection, and plasma was separated by centrifugation within 30 minutes (centrifugation conditions: 5000 rpm, 10 minutes, 4° C.). The collected plasma was stored at −80° C. before analysis.
Data processing: The data acquisition and control system software was Analyst 1.5.1 software (Applied Biosystem). The peak integration method of chromatographic samples was automatic integration; the ratio of the peak area of the sample to the peak area of the internal standard was used as an index for regression with the concentration of the sample. […] Pharmacokinetic parameters were analyzed with a non-compartmental model using WinNonlin Professional v6.3 (Pharsight, USA). Cmax was the measured maximum plasma concentration, the area under the plasma concentration-time curve AUC(0→t) was calculated by the trapezoidal method, and tmax was the time to peak plasma concentration after administration. Experimental data were presented as “Mean±SD” (n≥3) or “Mean” (n=2).

[4] = Brain permeability test, single intraperitoneal dose in C57 male mice; assay type: in vivo; conditions: male, C57, mouse, intraperitoneal 5 mg/kg
Description: Using the same method as that in the pharmacokinetic experiment, 0.030 mL of blood was collected from the orbit of each animal at 0.5 hours, 2.0 hours, and 4.0 hours, and anticoagulated with EDTA-K2. Blood samples were placed on ice after collection, and plasma was separated by centrifugation within 30 minutes (centrifugation conditions: 5000 rpm, 10 minutes, 4° C.). The collected plasma was stored at −80° C. before analysis. […] The homogenate was stored at −80° C. before analysis. Drug concentrations in plasma and brain tissues were analyzed by LC/MS/MS for comparison.

[5] = test system: MK801-induced hyperlocomotion in mice; test: Open field test, MK801-induced hyperlocomotion (schizophrenia-like model); assay type: in vivo, C57B6 male mice
Description: Experimental method: The experimental animals were C57B6 male mice, n=8 in each group. In this model, C57B6 mice were used as experimental animals. Hyperlocomotion of the mice in open field was induced by acute injection of a NMDA antagonist MK801, and modeled to test the inhibitory effect of different compounds on hyperlocomotion phenotype induced by MK801 All mouse behavior experiments were carried out during the light period. The whole process was recorded by the camera, and locomotive data were tracked and analyzed by behavioral tracking software. The compounds were administered intraperitoneally. Immediately after the injection, the mice entered the open field and their movement trajectories were recorded by the camera. After 30 minutes, the mice received 0.2 mg/kg of MK801 by intraperitoneal injection and returned to the open field immediately after administration, and the movement trajectories were further recorded for 120 minutes. The accumulative travelled distance of the mice was counted in a 5-minute bin. Data statistics were performed using Student-t-test analysis, *p<0.05, **p<0.01, ***p<0.001, ****p<0.0001. The total travelled distance of the mice in the 0-45 minute interval after administration of the compounds of the present disclosure at different doses in combination with MK801 (0.2 mg/kg) is shown in Table 10.

T1 sequence (P14416 whole entry): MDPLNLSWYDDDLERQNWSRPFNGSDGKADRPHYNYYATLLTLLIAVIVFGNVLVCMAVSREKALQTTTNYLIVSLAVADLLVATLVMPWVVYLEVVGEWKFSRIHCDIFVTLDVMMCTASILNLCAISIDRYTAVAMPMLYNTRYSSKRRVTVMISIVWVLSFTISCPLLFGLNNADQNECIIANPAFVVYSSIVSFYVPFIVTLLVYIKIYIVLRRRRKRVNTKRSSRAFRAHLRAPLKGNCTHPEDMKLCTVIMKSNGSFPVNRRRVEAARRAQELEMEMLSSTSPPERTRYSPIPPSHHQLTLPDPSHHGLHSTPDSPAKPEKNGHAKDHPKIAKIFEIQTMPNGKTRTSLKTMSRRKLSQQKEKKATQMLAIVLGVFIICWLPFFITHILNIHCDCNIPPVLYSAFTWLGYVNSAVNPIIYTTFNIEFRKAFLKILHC

Compound: COc1cccc2c3c([nH]c12)CN(CC[C@H]1CC[C@H](NC(=O)N(C)C)CC1)CC3 [I-B7, 3-(trans-4-(2-(8-methoxy-1,3,4,9-tetrahydro-2H-pyrido[3,4-b]indol-2-yl)ethyl)cyclohexyl)-1,1-dimethylurea]
- EC50 ([1]; read-out: Gαi1 BRET pEC50 ± SEM (converted)): 11.2 nM
- Emax ([1]; relative to endogenous ligand dopamine, read-out: Gαi1 BRET Emax % ± SEM): 21%
- EC50 ([1]; unit printed only in Cariprazine cell, read-out: Gαi1 BRET EC50): 17 nM
- EC50 ([2]; read-out: β-arrestin2 BRET pEC50 ± SEM (converted)): 0.107 nM
- Emax ([2]; relative to endogenous ligand dopamine, read-out: β-arrestin2 BRET Emax % ± SEM): 44%
- EC50 ([2]; unit printed only in Cariprazine cell, read-out: β-arrestin2 BRET EC50): 0.24 nM
- Vd ([3]; intravenous injection, 3 mg/kg, read-out: Apparent volume of distribution Vdss): 7.56 ± 0.4 L/kg
- AUC(0-t) ([3]; intravenous injection, 3 mg/kg): 2350 ± 127 ng·h/mL
- clearance ([3]; intravenous injection, 3 mg/kg, read-out: Clearance CL): 21 ± 1.2 mL/min/kg
- half-life ([3]; intravenous injection, 3 mg/kg): 3.91 ± 0.3 h
- MRT ([3]; intravenous injection, 3 mg/kg): 6.01 ± 0.2 h
- Cmax ([3]; intravenous injection, 3 mg/kg, read-out: Peak drug concentration C0 or Cmax): 330 ± 61 ng/mL
- AUC(0-t) ([3]; oral administration, 10 mg/kg): 10200 ± 945 ng·h/mL
- bioavailability ([3]; oral administration, 10 mg/kg, read-out: Bioavailability F): 128 ± 12%
- half-life ([3]; oral administration, 10 mg/kg): 5.12 ± 0.7 h
- MRT ([3]; oral administration, 10 mg/kg): 8.08 ± 0.23 h
- Cmax ([3]; oral administration, 10 mg/kg, read-out: Peak drug concentration Cmax): 734 ± 34 ng/mL
- Tmax ([3]; oral administration, 10 mg/kg, read-out: Time to peak concentration tmax): 3.17 ± 4 h
- Kp at 0.5 h ([4]; brain/plasma, ip, 0.5 h, read-out: 0.5 h ratio (brain/plasma)): 0.656
- Kp at 2 h ([4]; brain/plasma, ip, 2.0 h, read-out: 2.0 h ratio (brain/plasma)): 0.643
- concentration at 0.5 h ([4]; 0.5 h, brain, read-out: 0.5 h brain concentration): 392 ± 15 ng/mL
- concentration at 0.5 h ([4]; 0.5 h, plasma, read-out: 0.5 h plasma concentration): 598 ± 19 ng/mL
- concentration at 2 h ([4]; 2.0 h, brain, read-out: 2.0 h brain concentration): 73 ± 129 ng/mL
- concentration at 2 h ([4]; 2.0 h, plasma, read-out: 2.0 h plasma concentration): 114 ± 67.9 ng/mL
- Distance travelled in 45 minutes ([5]; MK801 0.2 mg/kg + compound 0.25 mg/kg i.p.): 13668 cm
- Distance travelled in 45 minutes ([5]; MK801 0.2 mg/kg + compound 1 mg/kg i.p.): 10199 cm
- Distance travelled in 45 minutes ([5]; MK801 0.2 mg/kg + compound 4 mg/kg i.p.): 4360 cm
- inhibition of MK801-induced hyperlocomotion in mice (in words) ([5]; at different doses): significantly inhibit
